Assay [1] concerns the target T1, Peregrin (Homo sapiens) (UniProt P55201).
T1 sequence (whole entry): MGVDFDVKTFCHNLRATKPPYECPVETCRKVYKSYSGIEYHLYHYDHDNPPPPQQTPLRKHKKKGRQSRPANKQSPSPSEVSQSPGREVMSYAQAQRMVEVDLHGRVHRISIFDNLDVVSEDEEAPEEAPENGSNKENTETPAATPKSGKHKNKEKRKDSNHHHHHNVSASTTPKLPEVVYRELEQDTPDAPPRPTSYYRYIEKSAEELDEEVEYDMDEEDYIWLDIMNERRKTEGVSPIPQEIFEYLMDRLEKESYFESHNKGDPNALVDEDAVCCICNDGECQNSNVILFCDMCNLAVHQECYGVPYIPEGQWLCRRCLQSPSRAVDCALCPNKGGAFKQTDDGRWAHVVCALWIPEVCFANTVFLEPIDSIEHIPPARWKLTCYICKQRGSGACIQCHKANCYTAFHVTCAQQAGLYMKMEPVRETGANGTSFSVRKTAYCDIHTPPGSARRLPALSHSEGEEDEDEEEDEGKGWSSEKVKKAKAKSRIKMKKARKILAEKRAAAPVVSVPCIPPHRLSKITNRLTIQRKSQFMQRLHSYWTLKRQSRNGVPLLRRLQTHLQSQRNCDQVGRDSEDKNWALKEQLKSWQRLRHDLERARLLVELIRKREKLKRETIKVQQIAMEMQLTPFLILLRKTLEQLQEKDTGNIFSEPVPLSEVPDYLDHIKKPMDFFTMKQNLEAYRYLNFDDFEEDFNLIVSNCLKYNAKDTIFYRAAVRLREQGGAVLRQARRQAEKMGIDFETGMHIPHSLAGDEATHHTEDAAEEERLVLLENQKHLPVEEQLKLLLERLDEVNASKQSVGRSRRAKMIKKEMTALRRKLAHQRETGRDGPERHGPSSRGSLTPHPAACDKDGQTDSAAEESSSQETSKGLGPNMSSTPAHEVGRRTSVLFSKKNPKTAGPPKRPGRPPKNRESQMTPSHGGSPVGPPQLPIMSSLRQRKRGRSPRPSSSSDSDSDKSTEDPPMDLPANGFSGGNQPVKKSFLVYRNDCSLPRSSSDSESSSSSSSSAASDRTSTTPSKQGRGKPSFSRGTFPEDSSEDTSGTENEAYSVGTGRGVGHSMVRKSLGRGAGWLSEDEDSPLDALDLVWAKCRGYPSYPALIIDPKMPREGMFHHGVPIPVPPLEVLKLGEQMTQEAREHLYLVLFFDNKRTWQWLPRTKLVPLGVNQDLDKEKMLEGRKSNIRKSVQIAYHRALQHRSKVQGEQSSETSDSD

Assay [2] has as its target T2, ATPase family AAA domain-containing protein 2 (Homo sapiens, UniProt Q6PL18).
T2 sequence (Q6PL18 whole entry): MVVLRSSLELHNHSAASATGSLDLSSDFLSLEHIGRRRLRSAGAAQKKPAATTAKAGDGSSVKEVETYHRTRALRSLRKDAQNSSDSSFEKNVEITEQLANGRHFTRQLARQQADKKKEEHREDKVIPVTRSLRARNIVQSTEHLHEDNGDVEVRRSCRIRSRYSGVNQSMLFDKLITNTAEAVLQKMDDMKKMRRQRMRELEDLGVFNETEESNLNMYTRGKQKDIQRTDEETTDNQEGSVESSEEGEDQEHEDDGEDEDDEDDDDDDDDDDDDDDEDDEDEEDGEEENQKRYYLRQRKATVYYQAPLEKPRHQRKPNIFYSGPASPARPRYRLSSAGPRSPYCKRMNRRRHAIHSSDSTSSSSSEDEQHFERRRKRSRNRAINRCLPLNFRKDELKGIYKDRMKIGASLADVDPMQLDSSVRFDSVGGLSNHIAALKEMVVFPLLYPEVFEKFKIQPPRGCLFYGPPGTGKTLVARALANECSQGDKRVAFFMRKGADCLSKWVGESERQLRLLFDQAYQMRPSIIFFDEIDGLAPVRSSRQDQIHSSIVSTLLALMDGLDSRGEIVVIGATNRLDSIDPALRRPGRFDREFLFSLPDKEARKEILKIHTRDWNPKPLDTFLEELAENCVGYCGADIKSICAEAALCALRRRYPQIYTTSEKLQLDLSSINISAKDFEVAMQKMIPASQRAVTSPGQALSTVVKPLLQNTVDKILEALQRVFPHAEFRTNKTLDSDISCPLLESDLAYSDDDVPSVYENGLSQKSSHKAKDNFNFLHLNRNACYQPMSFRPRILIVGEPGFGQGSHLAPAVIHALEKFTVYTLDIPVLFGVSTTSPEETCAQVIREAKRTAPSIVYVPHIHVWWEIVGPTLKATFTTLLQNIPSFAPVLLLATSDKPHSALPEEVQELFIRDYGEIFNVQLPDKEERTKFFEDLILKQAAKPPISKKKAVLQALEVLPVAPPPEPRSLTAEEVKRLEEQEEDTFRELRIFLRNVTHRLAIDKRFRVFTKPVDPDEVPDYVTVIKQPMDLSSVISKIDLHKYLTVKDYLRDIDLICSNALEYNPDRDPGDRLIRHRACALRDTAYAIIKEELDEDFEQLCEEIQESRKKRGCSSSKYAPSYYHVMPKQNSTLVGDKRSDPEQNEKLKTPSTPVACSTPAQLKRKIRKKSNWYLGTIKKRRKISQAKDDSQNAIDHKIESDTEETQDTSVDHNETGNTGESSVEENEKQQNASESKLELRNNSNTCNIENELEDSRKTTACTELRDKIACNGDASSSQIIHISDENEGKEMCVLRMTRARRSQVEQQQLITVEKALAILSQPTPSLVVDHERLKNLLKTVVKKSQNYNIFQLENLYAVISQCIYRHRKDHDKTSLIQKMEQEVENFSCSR
The assay can be described thus: Inhibition of human ATAD2A expressed in Escherichia coli BL21 after 1 hr by BROMOscan assay.

Each structure is given as a SMILES string.

For orientation: ΔTm means the change in melting temperature against a reference sample. In general, IC50 refers to the concentration at which inhibition is half-maximal. Low readings indicate inhibition by little substance, high ones a need for much substance.

`Cn1c(=O)ccc2cc(NS(=O)(=O)c3ccc(C#N)c(Cl)c3)ccc21`: the shift in melting temperature (ΔTm) in assay [1] is 4.3 °C.

For the compound `Cc1cc(C#N)ccc1S(=O)(=O)Nc1ccc2c(ccc(=O)n2C)c1`, the shift in melting temperature (ΔTm) in assay [1] worked out at 6.5 °C.

For `CCc1cc2cc(NS(=O)(=O)c3ccc(C#N)cc3)ccc2n(CC)c1=O`, the half-inhibitory concentration (IC50) in assay [2] is greater than 100 µM.

As for `Cc1cc2cc(NS(=O)(=O)c3ccc(C#N)cc3)ccc2n(C)c1=O`, the IC50 in assay [2] was greater than 100 µM.

The values are drawn from ChEMBL document CHEMBL4052588, “Design of a Biased Potent Small Molecule Inhibitor of the Bromodomain and PHD Finger-Containing (BRPF) Proteins Suitable for Cellular and in Vivo Studies” (J Med Chem, 2017).
